US6476047B2, “Anellated dihydropyridines for the treatment of chronic pain” (Boehringer Ingelheim Pharma KG, priority 2000, dated 2002)
Where a name gives a salt, the structure may show the parent alone.

What was measured:
[1] = molecular target: T1, N-type calcium channels in HEK-293 cell (Homo sapiens, UniProt Q00975); assay: Test A: Calcium imaging, inhibition of N-type calcium channels (FLUO-3, 80 mM K+ depolarisation); assay type: cell-based; conditions: FLUO-3 charged recombinant HEK-293 cells, potassium depolarisation (80 mM K+)
T1 construct: expressed in transfected cells; host or cells: HEK-293 (clone HEK-293-N26)
T1 sequence (Q00975 whole entry): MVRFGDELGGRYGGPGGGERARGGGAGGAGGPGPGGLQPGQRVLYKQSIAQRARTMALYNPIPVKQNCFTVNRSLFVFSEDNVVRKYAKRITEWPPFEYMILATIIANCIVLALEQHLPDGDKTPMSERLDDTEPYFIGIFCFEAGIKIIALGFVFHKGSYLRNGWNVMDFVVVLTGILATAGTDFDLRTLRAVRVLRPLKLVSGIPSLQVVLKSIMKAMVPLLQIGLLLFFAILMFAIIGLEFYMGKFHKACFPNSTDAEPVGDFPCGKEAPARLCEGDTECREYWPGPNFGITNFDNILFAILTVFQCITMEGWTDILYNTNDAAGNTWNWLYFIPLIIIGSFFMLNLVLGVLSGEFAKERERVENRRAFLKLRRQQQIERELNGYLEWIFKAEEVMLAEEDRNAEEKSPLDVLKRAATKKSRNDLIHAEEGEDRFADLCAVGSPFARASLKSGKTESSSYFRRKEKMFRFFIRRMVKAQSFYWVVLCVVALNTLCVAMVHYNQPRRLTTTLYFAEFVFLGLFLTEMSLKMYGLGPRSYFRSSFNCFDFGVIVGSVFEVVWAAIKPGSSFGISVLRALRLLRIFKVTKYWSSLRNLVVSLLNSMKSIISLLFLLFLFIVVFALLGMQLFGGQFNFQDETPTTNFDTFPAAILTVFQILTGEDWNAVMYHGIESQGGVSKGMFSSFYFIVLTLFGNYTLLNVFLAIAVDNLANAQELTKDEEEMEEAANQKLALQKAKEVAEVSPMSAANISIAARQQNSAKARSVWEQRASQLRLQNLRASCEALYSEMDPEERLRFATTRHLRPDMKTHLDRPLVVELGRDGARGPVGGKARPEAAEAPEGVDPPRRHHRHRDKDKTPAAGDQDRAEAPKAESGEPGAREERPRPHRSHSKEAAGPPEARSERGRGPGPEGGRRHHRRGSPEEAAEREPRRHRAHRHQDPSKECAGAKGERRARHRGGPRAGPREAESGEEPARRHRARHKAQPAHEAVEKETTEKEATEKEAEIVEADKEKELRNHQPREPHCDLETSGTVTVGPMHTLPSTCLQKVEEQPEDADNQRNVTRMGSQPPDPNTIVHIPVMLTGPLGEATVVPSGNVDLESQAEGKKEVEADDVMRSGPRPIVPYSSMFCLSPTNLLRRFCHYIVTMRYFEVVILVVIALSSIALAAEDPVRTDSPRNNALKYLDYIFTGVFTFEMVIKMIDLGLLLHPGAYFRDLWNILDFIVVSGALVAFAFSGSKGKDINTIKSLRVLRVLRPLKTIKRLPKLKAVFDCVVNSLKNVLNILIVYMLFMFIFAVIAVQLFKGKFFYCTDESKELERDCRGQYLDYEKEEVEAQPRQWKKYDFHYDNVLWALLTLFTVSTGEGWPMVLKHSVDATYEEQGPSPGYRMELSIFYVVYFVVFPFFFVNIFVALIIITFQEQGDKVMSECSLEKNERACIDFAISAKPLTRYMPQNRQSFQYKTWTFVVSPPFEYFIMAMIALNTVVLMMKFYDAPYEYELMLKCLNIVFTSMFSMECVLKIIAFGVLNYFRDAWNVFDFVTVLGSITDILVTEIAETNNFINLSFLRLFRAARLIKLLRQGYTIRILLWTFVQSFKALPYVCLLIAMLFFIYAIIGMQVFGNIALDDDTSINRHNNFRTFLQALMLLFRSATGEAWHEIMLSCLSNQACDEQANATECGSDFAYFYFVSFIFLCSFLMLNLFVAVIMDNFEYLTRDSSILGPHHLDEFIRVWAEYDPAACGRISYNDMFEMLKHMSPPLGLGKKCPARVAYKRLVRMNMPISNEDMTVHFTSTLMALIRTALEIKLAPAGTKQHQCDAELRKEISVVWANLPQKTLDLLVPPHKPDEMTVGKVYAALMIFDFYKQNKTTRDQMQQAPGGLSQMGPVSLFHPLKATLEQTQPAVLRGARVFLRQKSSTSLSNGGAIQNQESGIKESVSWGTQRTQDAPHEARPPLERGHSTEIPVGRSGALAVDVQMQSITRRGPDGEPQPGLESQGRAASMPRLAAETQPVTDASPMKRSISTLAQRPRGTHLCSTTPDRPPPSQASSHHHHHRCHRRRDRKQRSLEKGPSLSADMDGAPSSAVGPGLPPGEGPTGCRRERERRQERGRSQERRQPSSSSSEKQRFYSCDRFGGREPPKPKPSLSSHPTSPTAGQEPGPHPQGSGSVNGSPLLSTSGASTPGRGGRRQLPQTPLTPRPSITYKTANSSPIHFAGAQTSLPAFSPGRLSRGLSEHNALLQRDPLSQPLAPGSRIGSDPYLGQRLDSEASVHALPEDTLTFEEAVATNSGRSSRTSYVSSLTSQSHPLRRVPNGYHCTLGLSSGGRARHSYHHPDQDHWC
T1 sequence (P54289 25-956 partner limits assumed): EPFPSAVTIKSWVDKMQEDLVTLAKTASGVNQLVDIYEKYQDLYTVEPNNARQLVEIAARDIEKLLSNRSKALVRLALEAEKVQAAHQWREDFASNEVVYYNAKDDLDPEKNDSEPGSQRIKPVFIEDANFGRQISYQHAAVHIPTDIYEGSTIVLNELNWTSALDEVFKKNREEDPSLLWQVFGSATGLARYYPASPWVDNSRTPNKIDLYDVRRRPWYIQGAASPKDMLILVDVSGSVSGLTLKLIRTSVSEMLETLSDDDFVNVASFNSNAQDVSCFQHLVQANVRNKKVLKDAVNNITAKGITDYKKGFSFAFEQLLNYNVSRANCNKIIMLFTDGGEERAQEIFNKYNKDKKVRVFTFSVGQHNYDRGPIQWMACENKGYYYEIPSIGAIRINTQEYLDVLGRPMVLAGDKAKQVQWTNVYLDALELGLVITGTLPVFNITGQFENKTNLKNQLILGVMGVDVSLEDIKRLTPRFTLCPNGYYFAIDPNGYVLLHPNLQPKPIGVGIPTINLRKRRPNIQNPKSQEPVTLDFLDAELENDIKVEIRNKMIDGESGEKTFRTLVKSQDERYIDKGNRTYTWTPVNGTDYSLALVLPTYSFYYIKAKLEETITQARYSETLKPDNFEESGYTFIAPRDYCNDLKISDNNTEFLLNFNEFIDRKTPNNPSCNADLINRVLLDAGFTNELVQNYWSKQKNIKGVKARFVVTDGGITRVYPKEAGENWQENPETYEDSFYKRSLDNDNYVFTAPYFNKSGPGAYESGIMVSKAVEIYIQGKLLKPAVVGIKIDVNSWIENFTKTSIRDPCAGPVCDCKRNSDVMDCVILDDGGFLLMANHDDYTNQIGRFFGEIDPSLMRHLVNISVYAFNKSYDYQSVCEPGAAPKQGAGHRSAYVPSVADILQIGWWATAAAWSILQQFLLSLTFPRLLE
T1 sequence (P54289 957-1103 partner limits assumed): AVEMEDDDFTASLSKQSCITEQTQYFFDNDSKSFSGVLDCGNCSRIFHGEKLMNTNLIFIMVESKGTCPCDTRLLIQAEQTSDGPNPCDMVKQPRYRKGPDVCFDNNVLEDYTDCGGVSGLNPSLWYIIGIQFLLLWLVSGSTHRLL
T1 sequence (P54284 whole entry partner): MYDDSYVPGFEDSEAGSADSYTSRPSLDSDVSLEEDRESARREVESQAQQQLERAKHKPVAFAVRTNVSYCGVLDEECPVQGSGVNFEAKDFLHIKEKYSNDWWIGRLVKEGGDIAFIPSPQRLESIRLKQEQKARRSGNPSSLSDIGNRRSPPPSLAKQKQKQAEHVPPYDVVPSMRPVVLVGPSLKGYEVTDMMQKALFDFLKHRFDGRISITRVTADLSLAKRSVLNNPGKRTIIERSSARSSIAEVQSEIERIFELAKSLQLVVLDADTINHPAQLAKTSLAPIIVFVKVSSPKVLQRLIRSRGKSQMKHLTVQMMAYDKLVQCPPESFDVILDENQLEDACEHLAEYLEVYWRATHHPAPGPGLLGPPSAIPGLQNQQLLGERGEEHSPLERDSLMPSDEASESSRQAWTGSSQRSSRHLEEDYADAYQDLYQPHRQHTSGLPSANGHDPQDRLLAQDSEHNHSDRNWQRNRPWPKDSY
Excerpt: (§1) The concentration of the half-maximum inhibition (IC50-values) for the selected substances is in the submicro- to micromolar range. Independently of this optical method of measurement, the inhibitory effect on the N-type calcium channels was confirmed independently, by an electrophysiological method, using the patch-clamp technique on the same type of cells (Test B).
Inhibition of N-type calcium channels in HEK-293 cell

[2] = molecular target: T2, N-type calcium channel in HEK-293-N26 cells (Homo sapiens, UniProt Q00975); assay: Test B: Patch-clamp tests, N-type calcium channel blockade; assay type: cell-based
T2 construct: expressed in transfected cells; host or cells: HEK-293 (clone HEK-293-N26)
T2 sequence (Q00975 whole entry): as the sequence (Q00975 whole entry) above
T2 sequence (P54289 25-956 partner limits assumed): as the sequence (P54289 25-956 partner limits assumed) above
T2 sequence (P54289 957-1103 partner limits assumed): as the sequence (P54289 957-1103 partner limits assumed) above
T2 sequence (P54284 whole entry partner): as the sequence (P54284 whole entry partner) above
Excerpt: as §1
Test B: Patch-clamp Tests
N-type calcium channel blockade in HEK-293-N26 cells

rats [3] = assay: Test C: Formalin paw test; assay type: in vivo; conditions: po, rat, p.o., read-out: ED50 values Test C, inhibition of flinching
Method: Formalin Paw Test (Test C)
Male rats (Chbb: THOM) weighing 250-300 grams are used. 20 μl of a 2% formaldehyde solution is injected into the plantar region of the right hind paw. Immediately afterwards, the number of flinches (spasms of the affected hind paw) and the time spent licking the affected paw are recorded. After 5 minutes in each case the values are collated into epochs. Time-activity curves for flinches and licking are plotted from the epoch values. Typically, two phases of the formalin activity (flinches, licking) are observed. A first phase of 0-10 minutes and a second phase of 10-60 minutes. Between the two phases the number of flinches and the duration of licking fall towards 0 (interphase). The areas under the curve for the first phase and for the second phase are determined from the timeactivity curves. Usually 5 animals are used in each case for the control, placebo and dose of active substance. The results of the doses of active substance are compared with those of the control and ED50 values are calculated. ED50 is the dose at which the control values are inhibited by 50%.
Test C: Formalin-paw Test (Rat)
Inhibition of flinching (ED50 values in mg/kg; p.o.)

rats [4] = assay: Test D: Chronic Constriction Injury (CCI, Bennett model), mechanohyperalgesia; assay type: in vivo; conditions: po, rat
Excerpt: Chronic Constriction Injury (CCI, Bennett Model) (Test D)
The principle of the method is producing hyperalgesia and allodynia in the plantar region (the sole of the hind paw). Sprague-Dawley rats (Harlan) weighing 250-350 grams are used.
Under anaesthetic, four loose ligatures are placed on the sciatic nerve of the left hind paw at intervals of 2.5 mm in such a way that the perinerval circulation is affected but not prevented. This leads to extravasation and oedema, resulting in neuropathy of the nerves which innervate the planter region. The right hind paw is treated in the same way without the ligatures. Control tests for allodynia and/or hyperalgesia are carried out without the administration of any substance before and 8-10 days after the operation. Then substance tests are carried out at intervals of 2-3 days. The effects of the substance on the various parameters and ED50 values are calculated (=doses which inhibit by 50% the allodynic or hyperalgesic effects of the stimulation).
Mechano-hyperalgesia (Pin Prick)
The animals are placed in cages with a wire mesh base. Using a blunt needle (e.g. a large safety pin) the skin of the sole of the paw (Plantar-region) is touched so that an indentation is only just produced. Similarly, the sole of the paw is pinched gently with forceps. […] The number and duration of positive reactions of the operated and control paws are measured. […]

CC1(C)CN=C(c2ccccc2Oc2cc(C(F)(F)F)cc(C(F)(F)F)c2)c2ccccc21 (as salt: hydrochloride) [Example 9, 3,4-dihydro-4,4-dimethyl-1-[2-(3,5-ditrifluoromethyl)phenoxy]phenyl-isoquinoline hydrochloride]
melting point: 211 to 212 °C

COc1cc2c(cc1OC)C(c1ccc(Oc3ccccc3)cc1)=NCC2 (as salt: salt) [Example 1]
melting point: 209 to 210 °C

CCCCCCOc1ccc(C2=NCCc3cc(OC)c(OC)cc32)cc1 (as salt: salt) [Example 2]
melting point: 172 °C

COc1cc2c(c(OC)c1OC)CCN=C2c1ccc(Oc2ccccc2)cc1 (as salt: salt) [Example 3]
melting point: 173 to 175 °C

COc1cc2c(cc1OC)C(C)(C)CN=C2c1ccc(Oc2ccc(C(F)(F)F)cc2)cc1 (as salt: salt) [Example 5]
melting point: 195 to 198 °C

COc1cc2c(cc1OC)C(c1ccc(Oc3ccc(C(F)(F)F)cc3)cc1)=NCC2 (as salt: salt) [Example 6]
melting point: 218 °C

COc1cc2c(cc1OC)C(C)(C)CN=C2c1ccc(Oc2cc(C(F)(F)F)cc(C(F)(F)F)c2)cc1 (as salt: salt) [Example 7]
melting point: 197 °C

COc1cc2c(cc1OC)C(C)(C)CN=C2c1ccccc1Oc1cc(C(F)(F)F)cc(C(F)(F)F)c1 (as salt: salt) [Example 8]
melting point: 172 to 173 °C

COc1cc2c(cc1OC)C(c1ccc(Oc3cc(C(F)(F)F)cc(C(F)(F)F)c3)cc1)=NCC2 (as salt: salt) [Example 10]
melting point: 215 °C

CCCCCCOc1ccc(C2=NCC(C)(C)c3ccccc32)cc1 (as salt: salt) [Example 11]
melting point: 186 to 187 °C

COc1ccc2c(c1)C(C)(C)CN=C2c1ccccc1Oc1cc(C(F)(F)F)cc(C(F)(F)F)c1 (as salt: salt) [Example 12]
melting point: 122 to 123 °C

COc1cc2c(cc1OC)C(C)(C)CN=C2c1cccc(Oc2cc(C(F)(F)F)cc(C(F)(F)F)c2)c1 (as salt: salt) [Example 14]
melting point: 210 to 211 °C

COc1cc2c(cc1OC)C(C)(C)CN=C2c1cccc(Oc2ccccc2)c1 (as salt: salt) [Example 15]
melting point: 181 °C

CC1(C)CN=C(c2ccc(Oc3cc(C(F)(F)F)cc(C(F)(F)F)c3)cc2)c2ccccc21 (as salt: salt) [Example 16]
melting point: 217 to 218 °C

FC(F)(F)c1ccc(Oc2ccc(C3=NCCc4ccccc43)cc2)cc1 (as salt: salt) [Example 17]
melting point: 234 to 235 °C

COc1cc2c(cc1OC)C(c1ccc(Oc3ccccc3)cc1)=NCC2 [Example 1]
IC50 [1]: 1.86 µM | IC50 [2]: 1.8 µM | ED50 (rats [3]): 10 mg/kg

CCCCCCOc1ccc(C2=NCCc3cc(OC)c(OC)cc32)cc1 [Example 2]
IC50 [1]: 1.2 µM | IC50 [2]: 1.09 µM

COc1cc2c(c(OC)c1OC)CCN=C2c1ccc(Oc2ccccc2)cc1 [Example 3]
IC50 [1]: 1.94 µM

COc1cc2c(cc1OC)C(C)(C)CN=C2c1ccc(Oc2ccccc2)cc1 [Example 4]
IC50 [1]: 1.83 µM | melting point: 141 to 142 °C

COc1cc2c(cc1OC)C(C)(C)CN=C2c1ccc(Oc2ccc(C(F)(F)F)cc2)cc1 [Example 5]
IC50 [1]: 0.82 µM | IC50 [2]: 1.33 µM | ED50 (rats [3]): 15 mg/kg | ED50 (rats [4]): 10 mg/kg

COc1cc2c(cc1OC)C(c1ccc(Oc3ccc(C(F)(F)F)cc3)cc1)=NCC2 [Example 6]
IC50 [1]: 0.94 µM | IC50 [2]: 1.12 µM

COc1cc2c(cc1OC)C(C)(C)CN=C2c1ccc(Oc2cc(C(F)(F)F)cc(C(F)(F)F)c2)cc1 [Example 7]
IC50 [1]: 1.26 µM | IC50 [2]: 1 µM

COc1cc2c(cc1OC)C(C)(C)CN=C2c1ccccc1Oc1cc(C(F)(F)F)cc(C(F)(F)F)c1 [Example 8]
IC50 [1]: 3.16 µM | IC50 [2]: 1.7 µM

CC1(C)CN=C(c2ccccc2Oc2cc(C(F)(F)F)cc(C(F)(F)F)c2)c2ccccc21 [Example 9, 3,4-dihydro-4,4-dimethyl-1-[2-(3,5-ditrifluoromethyl)phenoxy]phenyl-isoquinoline hydrochloride]
IC50 [1]: 3.98 µM | IC50 [2]: 0.26 µM | ED50 (rats [3]): 10 mg/kg

COc1cc2c(cc1OC)C(c1ccc(Oc3cc(C(F)(F)F)cc(C(F)(F)F)c3)cc1)=NCC2 [Example 10]
IC50 [1]: 1.95 µM

CCCCCCOc1ccc(C2=NCC(C)(C)c3ccccc32)cc1 [Example 11]
IC50 [1]: 3.26 µM

COc1ccc2c(c1)C(C)(C)CN=C2c1ccccc1Oc1cc(C(F)(F)F)cc(C(F)(F)F)c1 [Example 12]
IC50 [1]: 5.54 µM | IC50 [2]: 1.6 µM

COc1cc2c(cc1OC)C(C)(C)CN=C2c1cccc(Oc2cc(C(F)(F)F)cc(C(F)(F)F)c2)c1 [Example 14]
IC50 [1]: 1.61 µM

COc1cc2c(cc1OC)C(C)(C)CN=C2c1cccc(Oc2ccccc2)c1 [Example 15]
IC50 [1]: 1.62 µM

CC1(C)CN=C(c2ccc(Oc3cc(C(F)(F)F)cc(C(F)(F)F)c3)cc2)c2ccccc21 [Example 16]
IC50 [2]: 1.22 µM

FC(F)(F)c1ccc(Oc2ccc(C3=NCCc4ccccc43)cc2)cc1 [Example 17]
IC50 [2]: 8.2 µM
